# What was measured:
# Assay type in all cases: in vivo
# [1] = tested on: ALOMY: Alopecurus myosuroides; experiment: Pre-emergence herbicidal action
# Text: (§1) Seeds of monocotyledonous and dicotyledonous weed plants and crop plants are placed in plastic or wood fiber pots and covered with soil. The compounds of the invention, formulated in the form of wettable powders (WP) or as emulsion concentrates (EC), are then applied onto the surface of the covering soil as aqueous suspension or emulsion with addition of 0.5% additive at a water application rate of […] (converted). After the treatment, the pots are placed in a greenhouse and kept under good growth conditions for the trial plants. After about 3 weeks, the effect of the preparations is scored visually in comparison with untreated controls as percentages. For example, 100% activity=the plants have died, 0% activity=like control plants. [table]
# [2] = tested on: AMARE: Amaranthus retroflexus; experiment: Pre-emergence herbicidal action
# Text: as §1
# [3] = tested on: AVEFA: Avena fatua; experiment: Pre-emergence herbicidal action
# Text: as §1
# [4] = tested on: SETVI: Setaria viridis; experiment: Pre-emergence herbicidal action
# Text: as §1
# [5] = tested on: STEME: Stellaria media; experiment: Pre-emergence herbicidal action
# Text: as §1
# [6] = tested on: VERPE: Veronica persica; experiment: Pre-emergence herbicidal action
# Text: as §1
# [7] = tested on: VIOTR: Viola tricolor; experiment: Pre-emergence herbicidal action
# Text: as §1
# [8] = tested on: ABUTH: Abutilon theophrasti; experiment: Post-emergence herbicidal action; details: Second Table C3, superiority with respect to WO 2012/130798, post-emergence, 80 g/ha
# Procedure: (§2) [table] Seeds of monocotyledonous and dicotyledonous weeds and crop plants are placed in sandy loam in plastic or wood-fiber pots, covered with soil and cultivated in a greenhouse under controlled growth conditions. 2 to 3 weeks after sowing, the test plants are treated at the one-leaf stage. The compounds of the invention, formulated in the form of wettable powders (WP) or as emulsion concentrates (EC), are then sprayed onto the green parts of the plants as aqueous suspension or emulsion with addition of 0.5% additive at a water application rate of […] (converted). After the test plants had been kept in the greenhouse under optimum growth conditions for about 3 weeks, the activity of the preparations is rated visually in comparison to untreated controls. For example, 100% activity=the plants have died, 0% activity=like control plants.
# [9] = tested on: STEME: Stellaria media; experiment: Post-emergence herbicidal action
# Procedure: as §2
# [10] = tested on: ABUTH: Abutilon theophrasti; experiment: Pre-emergence herbicidal action; details: Table C1, pre-emergence, 80 g/ha, scored visually after about 3 weeks
# Text: as §1
# [11] = tested on: ECHCG: Echinochloa crus-galli; experiment: Pre-emergence herbicidal action; details: Table C1, pre-emergence, 80 g/ha, scored visually after about 3 weeks
# Text: as §1
# [12] = tested on: HORMU: Hordeum murinum; experiment: Pre-emergence herbicidal action; details: Table C1, pre-emergence, 80 g/ha, scored visually after about 3 weeks
# Text: as §1
# [13] = tested on: LOLRI: Lolium rigidum; experiment: Pre-emergence herbicidal action; details: Table C1, pre-emergence, 80 g/ha, scored visually after about 3 weeks
# Text: as §1
# [14] = tested on: MATIN: Matricaria inodora; experiment: Pre-emergence herbicidal action; details: Table C1, pre-emergence, 80 g/ha, scored visually after about 3 weeks
# Text: as §1
# [15] = tested on: PHBPU: Ipomoea purpurea; experiment: Pre-emergence herbicidal action; details: Table C1, pre-emergence, 80 g/ha, scored visually after about 3 weeks
# Text: as §1
# [16] = tested on: POLCO: Polygonum convolvulus; experiment: Pre-emergence herbicidal action; details: Table C1, pre-emergence, 80 g/ha, scored visually after about 3 weeks
# Text: as §1
# [17] = tested on: ALOMY: Alopecurus myosuroides; experiment: Post-emergence herbicidal action; details: rated visually after about 3 weeks
# Procedure: as §2
# [18] = tested on: AMARE: Amaranthus retroflexus; experiment: Post-emergence herbicidal action; details: rated visually after about 3 weeks
# Procedure: as §2
# [19] = tested on: HORMU: Hordeum murinum; experiment: Post-emergence herbicidal action; details: rated visually after about 3 weeks
# Procedure: as §2
# [20] = tested on: LOLRI: Lolium rigidum; experiment: Post-emergence herbicidal action; details: rated visually after about 3 weeks
# Procedure: as §2
# [21] = tested on: POLCO: Polygonum convolvulus; experiment: Post-emergence herbicidal action; details: rated visually after about 3 weeks
# Procedure: as §2
# [22] = tested on: AVEFA: Avena fatua; experiment: Post-emergence herbicidal action; details: Table C2, post-emergence, dosage 320 (0.32 kg of active substance per hectare), rated visually after about 3 weeks
# Procedure: as §2
# [23] = tested on: ECHCG: Echinochloa crus-galli; experiment: Post-emergence herbicidal action; details: Table C2, post-emergence, dosage 320 (0.32 kg of active substance per hectare), rated visually after about 3 weeks
# Procedure: as §2
# [24] = tested on: VERPE: Veronica persica; experiment: Post-emergence herbicidal action; details: Table C2, post-emergence, dosage 320 (0.32 kg of active substance per hectare), rated visually after about 3 weeks
# Procedure: as §2
# [25] = Second Table C4, superiority with respect to WO 2012/130798, pre-emergence, 20 g/ha
# [26] = Second Table C3, superiority with respect to WO 2012/130798, post-emergence, 80 g/ha
# [27] = Table C1, pre-emergence, 80 g/ha, scored visually after about 3 weeks
# [28] = Table C4, post-emergence, 320 g/ha
# [29] = Table C2, post-emergence, dosage 320 (0.32 kg of active substance per hectare)
# [30] = Table C2, post-emergence, dosage 320 (0.32 kg of active substance per hectare), rated visually after about 3 weeks
Structure (SMILES),"Herbicidal action against [%] ALOMY [1, 25] [%]","Herbicidal action against [%] AMARE [2, 25] [%]","Herbicidal action against [%] AVEFA [3, 25] [%]","Herbicidal action against [%] SETVI [4, 25] [%]","Herbicidal action against [%] STEME [5, 25] [%]","Herbicidal action against [%] VERPE [6, 25] [%]","Herbicidal action against [%] VIOTR [7, 25] [%]",Herbicidal action against [%] ABUTH [8] [%],"Herbicidal action against [%] STEME [9, 26] [%]",Herbicidal action against [%] ABUTH [10] [%],"Herbicidal action against [%] ALOMY [1, 27] [%]","Herbicidal action against [%] AMARE [2, 27] [%]","Herbicidal action against [%] AVEFA [3, 27] [%]",Herbicidal action against [%] ECHCG [11] [%],Herbicidal action against [%] HORMU [12] [%],Herbicidal action against [%] LOLRI [13] [%],Herbicidal action against [%] MATIN [14] [%],Herbicidal action against [%] PHBPU [15] [%],"Herbicidal action against [%] SETVI [4, 27] [%]","Herbicidal action against [%] VIOTR [7, 27] [%]",other results
"CCOC(=O)C1CCC(NC(=O)C2(C)CC(c3cc(F)cc(F)c3)=NO2)C1 (centres unmarked) [Example 6.736, reference compound]",70,0,50,20,50,70,0,60,50,,,,,,,,,,,,
"CCOC(=O)[C@@H]1CC[C@H](NC(=O)[C@@]2(C(F)(F)F)CC(c3cc(F)cc(F)c3)=NO2)C1 [Example I-39, ethyl (1R,3S)-3-({[(5R)-3-(3,5-difluorophenyl)-5-(trifluoromethyl)-4,5-dihydro-1,2-oxazol-5-yl]carbonyl}amino)cyclopentanecarboxylate]",,,,,,,,,,70,100,100,100,100,90,100,90,80,100,100,"Herbicidal action against [%] POLCO [16]: 100%; Herbicidal action against [%] ALOMY [17, 28]: 100%; Herbicidal action against [%] AMARE [18, 28]: 80%; Herbicidal action against [%] HORMU [19, 28]: 100%; Herbicidal action against [%] LOLRI [20, 28]: 90%; Herbicidal action against [%] POLCO [21, 28]: 80%"
O=C(OCCCl)C1CCC(NC(=O)C2(C(F)(F)F)CC(c3cc(F)cc(F)c3)=NO2)C1 (mixture of isomers) [Example I-99],,,,,,,,,,80,100,100,90,90,100,100,80,90,100,100,"Herbicidal action against [%] STEME [5, 27]: 100%; Herbicidal action against [%] VERPE [6, 27]: 100%; Herbicidal action against [%] ALOMY [17, 29]: 90%; Herbicidal action against [%] AMARE [18, 29]: 90%; Herbicidal action against [%] AVEFA [22]: 90%; Herbicidal action against [%] ECHCG [23]: 90%; Herbicidal action against [%] HORMU [19, 29]: 90%; Herbicidal action against [%] LOLRI [20, 29]: 100%; Herbicidal action against [%] POLCO [21, 29]: 80%; Herbicidal action against [%] STEME [9, 30]: 90%; Herbicidal action against [%] VERPE [24]: 90%"
CCOC(=O)C1CCC(NC(=O)C2(C(F)(F)F)CC(c3cc(F)cc(F)c3)=NO2)C1 (mixture of isomers) [Example I-29],90,100,70,90,90,90,90,80,80,70,100,100,80,90,90,100,30,80,100,90,"Herbicidal action against [%] POLCO [16]: 80%; Herbicidal action against [%] STEME [5, 27]: 90%; Herbicidal action against [%] VERPE [6, 27]: 100%; Herbicidal action against [%] ALOMY [17, 29]: 90%; Herbicidal action against [%] AMARE [18, 29]: 80%; Herbicidal action against [%] AVEFA [22]: 90%; Herbicidal action against [%] ECHCG [23]: 80%; Herbicidal action against [%] HORMU [19, 29]: 90%; Herbicidal action against [%] LOLRI [20, 29]: 90%; Herbicidal action against [%] POLCO [21, 29]: 90%; Herbicidal action against [%] STEME [9, 30]: 80%; Herbicidal action against [%] VERPE [24]: 80%"

# From patent US20200369630A1, “HERBICIDALLY ACTIVE 3-PHENYL-5-TRIFLUOROMETHYLISOXAZOLINE-5-CARBOXAMIDES OF CYCLOPENTYLCARBOXYLIC ACIDS AND ESTERS” (Bayer Aktiengesellschaft, priority 2017, published 2020)
